Patent publication US20230146795A1, “ENHANCEMENT OF ANTI-TUMOR ACTIVITY OF SHP2 INHIBITOR PYRIMIDINONE IN COMBINATION WITH NOVEL CANCER MEDICINES IN CANCERS” (TAIHO PHARMACEUTICAL CO., LTD., priority 2020, published 2023)

Columns and labels:
Assay type in all cases: cell-based
[1] = test system: MKN45; assay: Anti-proliferation assay (CellTiter-Glo 2.0), combination index, MKN45
Method: (§1) Cell lines were obtained from ATCC or Health Science Research Resources Bank.
(§2) Each cell lines were collected by ordinary method, then suspended in indicated medium containing 10% fetal bovine serum in table 3. The number of cells seeded per well was set to 500 cells/20 μL. […] The concentration of each anti-cancer reagents set to 8 concentrations including 0 nM. After adding the medicine to the cells, the cells were further incubated at 37° C. for 3 days under 5% CO2. Cell survival rates were calculated by adding 20 μL of CellTiter-Glo(registered trademark) 2. 0 (Promega) solution to each well, incubating the cells at room temperature for 10 minutes, and then measuring the chemiluminescence intensity of each well using a plate reader (ARVO).
(§3) A combination index (CI) value at each combined concentration of the medicines was determined.

[2] = test system: NCI-H358; assay: Anti-proliferation assay (CellTiter-Glo 2.0), combination index, NCI-H358
Method: as §1, §2, §3

[3] = test system: RT4; assay: Anti-proliferation assay (CellTiter-Glo 2.0), combination index, RT4
Method: as §1, §2, §3

[4] = Compound 1 13.7 + combination drug 123 nmol/L (1:9)
[5] = Compound 1 41.2 + combination drug 370 nmol/L (1:9)
[6] = Compound 1 123 + combination drug 1110 nmol/L (1:9)
[7] = Compound 1 370 + combination drug 3330 nmol/L (1:9)
[8] = Compound 1 4.57 + combination drug 41.2 nmol/L (1:9)
[9] = Compound 1 1110 + combination drug 10000 nmol/L (1:9)
[10] = Compound 1 123 + combination drug 3330 nmol/L (1:27)
[11] = Compound 1:combination drug molar ratio 1:9
[12] = Compound 1 123 nmol/L + Doxorubicin 123 nmol/L, molar ratio 1:1
[13] = Compound 1 370 nmol/L + Doxorubicin 370 nmol/L, molar ratio 1:1
[14] = Compound 1 1110 nmol/L + Doxorubicin 1110 nmol/L, molar ratio 1:1
[15] = Compound 1 3330 nmol/L + Doxorubicin 370 nmol/L, molar ratio 1:0.1
[16] = Compound 1 10000 nmol/L + Doxorubicin 1110 nmol/L, molar ratio 1:0.1
[17] = Compound 1 41.2 nmol/L + Doxorubicin 13.7 nmol/L, molar ratio 1:0.3
[18] = Compound 1 123 nmol/L + Doxorubicin 41.2 nmol/L, molar ratio 1:0.3
[19] = Compound 1 370 nmol/L + Doxorubicin 123 nmol/L, molar ratio 1:0.3
[20] = Compound 1 3330 nmol/L + Doxorubicin 1110 nmol/L, molar ratio 1:0.3
[21] = Compound 1 10000 nmol/L + Doxorubicin 3330 nmol/L, molar ratio 1:0.3
[22] = Compound 1 13.7 nmol/L + Oxalliplatin 370 nmol/L, molar ratio 1:27
[23] = Compound 1 41.2 nmol/L + Oxalliplatin 1110 nmol/L, molar ratio 1:27
[24] = Compound 1 123 nmol/L + Oxalliplatin 3330 nmol/L, molar ratio 1:27
[25] = Compound 1 370 nmol/L + Oxalliplatin 10000 nmol/L, molar ratio 1:27
[26] = Compound 1 4.57 nmol/L + Oxalliplatin 41.2 nmol/L, molar ratio 1:9

For `Cn1cnc2c(F)c(Nc3ccc(Br)cc3F)c(C(=O)NOCCO)cc21` [Binimetinib], the CI [1, 4] was 0.630, the Fa [1, 4] was 0.2390 and the CI [1, 5] was 0.387. The Fa [1, 5] was 0.5003, the CI [1, 6] was 0.212 and the Fa [1, 6] was 0.7765. The CI [1, 7] was 0.360, the Fa [1, 7] was 0.8408 and the CI [2, 8] was 0.883. It also gave a Fa [2, 8] of 0.0312, a CI [2, 4] of 0.223 and a Fa [2, 4] of 0.1821. It also gave a CI [2, 5] of 0.196, a Fa [2, 5] of 0.3954 and a CI [2, 6] of 0.222. It also gave a Fa [2, 6] of 0.6241, a CI [2, 7] of 0.349 and a Fa [2, 7] of 0.7635. It also gave a CI [2, 9] of 0.673 and a Fa [2, 9] of 0.8387.
`COc1cc2c(Oc3ccc4[nH]c(C)cc4c3F)ccnc2cc1OCC1(N)CC1` [Anlotinib] was tested, and the CI [1, 10] was 0.755, the Fa [1, 10] was 0.7514 and the CI [2, 5] was 0.557. The Fa [2, 5] was 0.3217, the CI [2, 6] was 0.416 and the Fa [2, 6] was 0.5609. For the same compound, the CI [2, 7] was 0.390, the Fa [2, 7] was 0.7902 and the CI [2, 9] was 0.488. The Fa [2, 9] was 0.9031, the “Description (combinatory effect by CI)” value [2, 11] was “Synergy (0.3-0.7)” and the CI [3, 4] was 0.501. It also gave a Fa [3, 4] of 0.3362, a CI [3, 5] of 0.444 and a Fa [3, 5] of 0.5003. For the same compound, the CI [3, 6] was 0.387, the Fa [3, 6] was 0.7040 and the CI [3, 7] was 0.326. For the same compound, the Fa [3, 7] was 0.8765, the CI [3, 9] was 0.316 and the Fa [3, 9] was 0.9539. For the same compound, the “Description (combinatory effect by CI)” value [3, 11] was “Synergy (0.3-0.7)”.
Compound `COc1cccc2c1C(=O)c1c(O)c3c(c(O)c1C2=O)C[C@@](O)(C(=O)CO)C[C@@H]3O[C@H]1C[C@H](N)[C@H](O)[C@H](C)O1` [Doxorubicin] has a CI [1, 12] of 0.596, a Fa [1, 12] of 0.5818 and a CI [1, 13] of 0.267. It also gave a Fa [1, 13] of 0.8738, a CI [1, 14] of 0.361 and a Fa [1, 14] of 0.9317. For the same compound, the CI [2, 15] was 0.845, the Fa [2, 15] was 0.7275 and the CI [2, 16] was 0.249. It also gave a Fa [2, 16] of 0.9706, a CI [3, 17] of 0.866 and a Fa [3, 17] of 0.2952. For the same compound, the CI [3, 18] was 0.403, the Fa [3, 18] was 0.5056 and the CI [3, 19] was 0.554. The Fa [3, 19] was 0.6537, the CI [3, 20] was 0.191 and the Fa [3, 20] was 0.9964. For the same compound, the CI [3, 21] was 0.063 and the Fa [3, 21] was 0.9999.
`O=C1[O][Pt]2([NH][C@@H]3CCCC[C@H]3[NH]2)[O]C1=O` [Oxalliplatin] showed a CI [1, 22] of 0.571, a Fa [1, 22] of 0.4748 and a CI [1, 23] of 0.322. It also gave a Fa [1, 23] of 0.6458, a CI [1, 24] of 0.273 and a Fa [1, 24] of 0.7808. It also gave a CI [1, 25] of 0.216, a Fa [1, 25] of 0.9038 and a CI [2, 22] of 0.699. For the same compound, the Fa [2, 22] was 0.1376, the CI [2, 23] was 0.424 and the Fa [2, 23] was 0.3478. For the same compound, the CI [2, 24] was 0.623, the Fa [2, 24] was 0.4795 and the Description ([2]; combination effect, Compound 1 + Oxalliplatin, molar ratio 1:27) was “Synergy (0.3-0.7)”. For the same compound, the CI [3, 26] was 0.932 and the Fa [3, 26] was 0.2140.
